Reference: the NIST ThermoML archive (doi:10.1016/j.jct.2012.09.026)

Assay: xn = mol fraction of the nth substance listed
Conditions: Liquid

CC(C)(C)O [2-methylpropan-2-ol] + O
mass density [kg/m3]
Conditions	278.15 K	288.15 K	298.15 K	308.15 K	323.15 K
101.3 kPa, Vibrating tube method, x1 = 0.0248	986.88	985.26	982.45	978.65	971.52
101.3 kPa, Vibrating tube method, x1 = 0.04241	981.87	978.77	974.54	969.43	960.77
101.3 kPa, Vibrating tube method, x1 = 0.05887	977	971.81	965.94	959.67	949.57
101.3 kPa, Vibrating tube method, x1 = 0.08929	963.35	956.03	949.01	941.57	930.6
101.3 kPa, Vibrating tube method, x1 = 0.1125	951.21	943.7	936.18	928.56	916.92
101.3 kPa, Vibrating tube method, x1 = 0.1566	929.91	922.09	914.18	906.33	893.97
101.3 kPa, Vibrating tube method, x1 = 0.208	910.57	902.66	894.55	886.22	873.34
101.3 kPa, Vibrating tube method, x1 = 0.3023	882.17	874	865.6	856.97	843.45
101.3 kPa, Vibrating tube method, x1 = 0.4045	860.22	851.78	843.11	834.17	820.18
101.3 kPa, Vibrating tube method, x1 = 0.4827	847.15	838.7	830.01	820.93	806.67
101.3 kPa, Vibrating tube method, x1 = 0.5344	839.61	830.98	822.05	812.83	798.37
101.3 kPa, Vibrating tube method, x1 = 0.6029	831.08	822.27	813.22	803.86	789.18
101.3 kPa, Vibrating tube method, x1 = 0.726	818.36	809.38	800.1	790.54	775.51
101.3 kPa, Vibrating tube method, x1 = 0.7999	812.56	803.46	794.07	784.37	768.91
101.3 kPa, Vibrating tube method, x1 = 0.8711	–	797.8	788.3	778.45	763
101.3 kPa, Vibrating tube method, x1 = 0.9183	–	794.66	785.07	775.09	759.52
101.3 kPa, Vibrating tube method, x1 = 0.9574	–	–	782.74	772.63	756.76
101.3 kPa, Vibrating tube method, x1 = 1	–	–	–	770.14	753.94
10000 kPa, Constant-volume piezometry, x1 = 0.0248	990.83	989.1	986.4	982.6	975.58
10000 kPa, Constant-volume piezometry, x1 = 0.04241	985.44	982.35	978.4	973.49	965.03
10000 kPa, Constant-volume piezometry, x1 = 0.05887	980.38	975.51	969.98	963.89	954.03
10000 kPa, Constant-volume piezometry, x1 = 0.08929	967.1	960.11	953.39	946.1	935.46
10000 kPa, Constant-volume piezometry, x1 = 0.1125	955.35	948.15	940.81	933.31	922.12
10000 kPa, Constant-volume piezometry, x1 = 0.1566	934.55	927.05	919.21	911.53	899.59
10000 kPa, Constant-volume piezometry, x1 = 0.208	915.88	908.09	899.99	891.88	879.35
10000 kPa, Constant-volume piezometry, x1 = 0.3023	888.19	880.07	871.71	863.34	850.13
10000 kPa, Constant-volume piezometry, x1 = 0.4045	866.8	858.48	849.93	841.23	827.69
10000 kPa, Constant-volume piezometry, x1 = 0.4827	854.18	845.78	837.26	828.5	814.74
10000 kPa, Constant-volume piezometry, x1 = 0.5344	–	838.32	829.58	820.71	806.74
10000 kPa, Constant-volume piezometry, x1 = 0.6029	–	–	821.11	812.19	797.93
10000 kPa, Constant-volume piezometry, x1 = 0.726	–	–	–	799.44	784.92
10000 kPa, Constant-volume piezometry, x1 = 0.7999	–	–	–	–	778.73
10000 kPa, Constant-volume piezometry, x1 = 0.8711	–	–	–	–	773.1
10000 kPa, Constant-volume piezometry, x1 = 0.9183	–	–	–	–	769.84
10000 kPa, Constant-volume piezometry, x1 = 0.9574	–	–	–	–	767.23
10000 kPa, Constant-volume piezometry, x1 = 1	–	–	–	–	764.58
25000 kPa, Constant-volume piezometry, x1 = 0.0248	996.63	994.94	992.33	988.54	981.52
25000 kPa, Constant-volume piezometry, x1 = 0.04241	990.81	987.9	984.21	979.65	971.36
25000 kPa, Constant-volume piezometry, x1 = 0.05887	985.66	981.16	975.95	970.24	960.64
25000 kPa, Constant-volume piezometry, x1 = 0.08929	972.88	966.27	959.85	952.8	942.55
25000 kPa, Constant-volume piezometry, x1 = 0.1125	961.59	954.74	947.61	940.3	929.62
25000 kPa, Constant-volume piezometry, x1 = 0.1566	941.34	934.17	926.51	919.1	907.6
25000 kPa, Constant-volume piezometry, x1 = 0.208	923.3	915.74	907.83	900.03	887.94
25000 kPa, Constant-volume piezometry, x1 = 0.3023	896.35	888.45	880.25	872.28	859.69
25000 kPa, Constant-volume piezometry, x1 = 0.4045	875.55	867.58	859.23	850.99	838.16
25000 kPa, Constant-volume piezometry, x1 = 0.4827	863.45	855.38	847.01	838.84	825.82
25000 kPa, Constant-volume piezometry, x1 = 0.5344	–	848.18	839.65	831.4	818.13
25000 kPa, Constant-volume piezometry, x1 = 0.6029	–	–	831.63	823.36	809.81
25000 kPa, Constant-volume piezometry, x1 = 0.726	–	–	–	811.34	797.59
25000 kPa, Constant-volume piezometry, x1 = 0.7999	–	–	–	–	791.84
25000 kPa, Constant-volume piezometry, x1 = 0.8711	–	–	–	–	786.62
25000 kPa, Constant-volume piezometry, x1 = 0.9183	–	–	–	–	783.6
25000 kPa, Constant-volume piezometry, x1 = 0.9574	–	–	–	–	781.19
25000 kPa, Constant-volume piezometry, x1 = 1	–	–	–	–	778.73
50000 kPa, Constant-volume piezometry, x1 = 0.0248	1005.84	1004.75	1002.03	998.04	991.13
50000 kPa, Constant-volume piezometry, x1 = 0.04241	999.56	997.38	993.67	989.37	981.39
50000 kPa, Constant-volume piezometry, x1 = 0.05887	994.6	990.56	985.61	980.26	971.01
50000 kPa, Constant-volume piezometry, x1 = 0.08929	982.34	976.26	970.06	963.39	953.61
50000 kPa, Constant-volume piezometry, x1 = 0.1125	971.7	965.1	958.37	951.52	941.17
50000 kPa, Constant-volume piezometry, x1 = 0.1566	952.1	945.1	937.98	931.05	920.03
50000 kPa, Constant-volume piezometry, x1 = 0.208	934.42	927.25	920	912.67	901.32
50000 kPa, Constant-volume piezometry, x1 = 0.3023	908.07	900.8	893.22	885.81	874.39
50000 kPa, Constant-volume piezometry, x1 = 0.4045	887.79	880.62	872.83	865.39	853.64
50000 kPa, Constant-volume piezometry, x1 = 0.4827	876.1	869.2	861.18	853.93	841.81
50000 kPa, Constant-volume piezometry, x1 = 0.5344	–	862.25	854.14	846.76	834.43
50000 kPa, Constant-volume piezometry, x1 = 0.6029	–	–	846.6	839.04	826.63
50000 kPa, Constant-volume piezometry, x1 = 0.726	–	–	–	827.94	815.19
50000 kPa, Constant-volume piezometry, x1 = 0.7999	–	–	–	–	809.91
50000 kPa, Constant-volume piezometry, x1 = 0.8711	–	–	–	–	805.23
50000 kPa, Constant-volume piezometry, x1 = 0.9183	–	–	–	–	802.47
50000 kPa, Constant-volume piezometry, x1 = 0.9574	–	–	–	–	800.32
50000 kPa, Constant-volume piezometry, x1 = 1	–	–	–	–	798.2
75000 kPa, Constant-volume piezometry, x1 = 0.0248	1014.43	1014.19	1011.23	1006.97	1000.34
75000 kPa, Constant-volume piezometry, x1 = 0.04241	1007.73	1006.42	1002.58	998.3	990.63
75000 kPa, Constant-volume piezometry, x1 = 0.05887	1002.96	999.48	994.71	989.51	980.49
75000 kPa, Constant-volume piezometry, x1 = 0.08929	991.23	985.6	979.52	973.24	963.7
75000 kPa, Constant-volume piezometry, x1 = 0.1125	981	974.66	968.17	961.84	951.62
75000 kPa, Constant-volume piezometry, x1 = 0.1566	961.89	955.07	948.39	941.93	931.22
75000 kPa, Constant-volume piezometry, x1 = 0.208	944.32	937.59	930.82	924	913.19
75000 kPa, Constant-volume piezometry, x1 = 0.3023	918.19	911.52	904.74	897.73	887.1
75000 kPa, Constant-volume piezometry, x1 = 0.4045	898.01	891.74	884.67	877.69	866.87
75000 kPa, Constant-volume piezometry, x1 = 0.4827	886.19	880.7	873.35	866.59	855.33
75000 kPa, Constant-volume piezometry, x1 = 0.5344	–	873.92	866.45	859.52	848.15
75000 kPa, Constant-volume piezometry, x1 = 0.6029	–	–	859.03	851.9	840.58
75000 kPa, Constant-volume piezometry, x1 = 0.726	–	–	–	841.27	829.57
75000 kPa, Constant-volume piezometry, x1 = 0.7999	–	–	–	–	824.52
75000 kPa, Constant-volume piezometry, x1 = 0.8711	–	–	–	–	820.17
75000 kPa, Constant-volume piezometry, x1 = 0.9183	–	–	–	–	817.6
75000 kPa, Constant-volume piezometry, x1 = 0.9574	–	–	–	–	815.64
75000 kPa, Constant-volume piezometry, x1 = 1	–	–	–	–	813.79
100000 kPa, Constant-volume piezometry, x1 = 0.0248	1022.28	1022.71	1019.69	1015.14	1009.12
100000 kPa, Constant-volume piezometry, x1 = 0.04241	1014.85	1014.15	1010.64	1006.32	998.9
100000 kPa, Constant-volume piezometry, x1 = 0.05887	1009.82	1007.36	1003.04	997.93	989.01
100000 kPa, Constant-volume piezometry, x1 = 0.08929	999.16	993.91	988.13	982.34	972.81
100000 kPa, Constant-volume piezometry, x1 = 0.1125	988.91	983.36	976.75	970.82	961.04
100000 kPa, Constant-volume piezometry, x1 = 0.1566	970.36	964.36	957.51	951.42	941.06
100000 kPa, Constant-volume piezometry, x1 = 0.208	953.46	947.22	940.04	933.91	923.15
100000 kPa, Constant-volume piezometry, x1 = 0.3023	927.69	921.12	915	908.14	897.26
100000 kPa, Constant-volume piezometry, x1 = 0.4045	907.4	901.88	895.56	888.2	878.13
100000 kPa, Constant-volume piezometry, x1 = 0.4827	895.03	890.44	884.31	877.25	867.33
100000 kPa, Constant-volume piezometry, x1 = 0.5344	–	883.95	877.51	870.36	860.41
100000 kPa, Constant-volume piezometry, x1 = 0.6029	–	–	869.84	863.06	852.9
100000 kPa, Constant-volume piezometry, x1 = 0.726	–	–	–	852.47	842.31
100000 kPa, Constant-volume piezometry, x1 = 0.7999	–	–	–	–	837.55
100000 kPa, Constant-volume piezometry, x1 = 0.8711	–	–	–	–	833.28
100000 kPa, Constant-volume piezometry, x1 = 0.9183	–	–	–	–	830.96
100000 kPa, Constant-volume piezometry, x1 = 0.9574	–	–	–	–	829.12
100000 kPa, Constant-volume piezometry, x1 = 1	–	–	–	–	827.34
